Assays:
[1] = in vivo; conditions: male, Sprague-Dawley, rat, iv, 1 mg/kg
[2] = in vivo; conditions: male, Sprague-Dawley, rat, iv, 1 mg/kg; remark: listed apart in the source
[3] = in vivo; conditions: male, Sprague-Dawley, rat, iv, 1 mg/kg; remark: listed apart in the source
[4] = in vivo; conditions: male, Sprague-Dawley, rat, iv, 1 mg/kg; remark: listed apart in the source
[5] = in vivo; conditions: male, Sprague-Dawley, rat, po, 10 mg/kg
[6] = in vivo; conditions: male, Sprague-Dawley, rat, po, 10 mg/kg; remark: listed apart in the source
[7] = in vivo; conditions: male, Sprague-Dawley, rat, po, 10 mg/kg; remark: listed apart in the source
[8] = in vivo; conditions: male, Sprague-Dawley, rat, po, 10 mg/kg; remark: listed apart in the source

O=C(Cc1ccccc1F)Nc1cccc(Sc2ccc3c(/C=C/c4ccccn4)n[nH]c3c2)c1
AUC(0-t) at 24 h [1]: 1590 ng·h/mL | MRT last at 24 h [2]: 1.62 h | Cmax at 24 h [3]: 1470 ng/mL | Tmax at 24 h [4]: 1.8 min | AUC(0-t) at 24 h [5]: 1670 ng·h/mL | MRT last at 24 h [6]: 2.73 h | Cmax at 24 h [7]: 484 ng/mL | Tmax at 24 h [8]: 1.67 h

From ChEMBL document CHEMBL5614461, “Design, synthesis and biological evaluation of indazole derivatives as VEGFR-2 kinase inhibitors with anti-angiogenic properties” (Eur J Med Chem, 2024)
